The record followed here is BindingDB's records for doi:10.1021/acs.jmedchem.9b01143 (2019).

Some results are limits rather than exact numbers.

The target in this assay is Activin receptor type-2A (ACVR2A) (Homo sapiens) (UniProt P27037). Kind of assay: Inhibition of human recombinant ACTR2 (162 to end residues) using casein as substrate incubated for 120 mins in presence of [gamma-33P]ATP by radiometric scintillation counting analysis.

Take `CN(C)c1ccc(C(=O)Nc2cccc(NC(=O)COc3ccc4c(=O)ccoc4c3)c2)cc1`: the IC50 is more than 10 µM.

In general, IC50 refers to the concentration that inhibits the measured activity by half.
